Assay results as given in patent publication US20090105282A1, “METHODS OF TREATING BENIGN PROSTATIC HYPERPLASIA OR LOWER URINARY TRACT SYMPTOMS BY USING PDE 5 INHIBITORS” (Schering-Plough Corporation, priority 2005, published 2009).

target: PDE 5 (Homo sapiens, UniProt O76074); assay: PDE 5 enzyme inhibition (PDE 5 IC50); format: biochemical

Structure (SMILES)	IC50 [nM]
CCn1c(=O)c2c(nc(NC3CCCCC3)n2Cc2ccc(O)c(Cl)c2)n(CCO)c1=O [Compound 107]	≤ 5
CCn1c(=O)c2c(nc(NC3CCCCC3)n2Cc2ccc(O)cc2)n(CCO)c1=O [Compound 104]	≤ 5
CCn1c(=O)c2c(nc(NC3CCCCC3)n2Cc2ccc(S(N)(=O)=O)cc2)n(CC)c1=O [Compound 119]	≤ 5
CCn1c(=O)c2c(nc(NC3CCCCC3)n2Cc2ccc(OC)c(Br)c2)n(CCO)c1=O [Compound 117]	≤ 5
CCn1c(=O)c2c(nc(NC3CCCCC3)n2Cc2ccc(O)c(Br)c2)n(CCO)c1=O [Compound 116]	≤ 5
CCn1c(=O)c2c(nc(NC3CCCCC3)n2Cc2ccc(OC)c(Cl)c2)n(CCO)c1=O [Compound 105]	≤ 5
CCn1c(=O)c2c(nc(N[C@@H]3CCC[C@H]3O)n2Cc2ccc(O)c(Br)c2)n(CCO)c1=O [Compound 118]	≤ 5
CCn1c(=O)c2c(nc(NC3CCCCC3)n2Cc2ccc(OC)c(Br)c2)n(CC)c1=O [Compound 122]	≤ 5
Cn1c(=O)c2c(nc(NC3CCCCC3)n2Cc2ccc(O)cc2)n(C)c1=O [Compound 37]	5 to 10
COc1ccc(Cn2c(NC3CC4CCC3C4)nc3c2c(=O)n(C)c(=O)n3C)cc1 (stereo not drawn) [Compound 77]	15 to 100
CCn1c(=O)c2c(nc(NC3CCCC3)n2Cc2ccc(O)cc2)n(C)c1=O [Compound 79]	5 to 10
CCn1c(=O)c2c(nc(N[C@@H]3CCC[C@H]3O)n2Cc2ccc(OC)c(Cl)c2)n(CCO)c1=O [Compound 106]	≤ 5
CCn1c(=O)c2c(nc(NC3CCCCC3)n2Cc2ccc(OC)cc2)n(CCO)c1=O [Compound 103]	≤ 5

Next, values leading:

IC50 [nM]	Structure (SMILES)
15 to 100	Cn1c(=O)c2c(nc(NC3CCCCC3)n2Cc2cccc(O)c2)n(C)c1=O [Compound 146]
≤ 5	CCn1c(=O)c2c(nc(NC3CCOCC3)n2Cc2ccc(S(N)(=O)=O)cc2)n(CC)c1=O [Compound 188]
15 to 100	Cn1c(=O)c2c(nc(NC3CCCCC3)n2Cc2ccccc2Cl)n(C)c1=O [Compound 148]
≤ 5	CCn1c(=O)c2c(nc(N[C@@H]3CCC[C@H]3O)n2Cc2ccc(OC)c(Br)c2)n(CC)c1=O [Compound 123]
≤ 5	CCn1c(=O)c2c(nc(NC3CCCCC3)n2Cc2ccc(O)c(C)c2)n(CC)c1=O [Compound 169]
15 to 100	Cc1cc(Cn2c(NC3CCCCC3)nc3c2c(=O)n(C)c(=O)n3C)ccc1O [Compound 147]
≤ 5	CCn1c(=O)c2c(nc(NC3CCCCC3)n2Cc2ccc3c(c2)OCO3)n(CC)c1=O [Compound 168]
≤ 5	CCn1c(=O)c2c(nc(NC3CCCCC3)n2Cc2cccc(O)c2)n(CC)c1=O [Compound 170]
≤ 5	CCn1c(=O)c2c(nc(NC3CCOCC3)n2Cc2ccc(OC)c(Br)c2)n(CCO)c1=O [Compound 186]
≤ 5	CCn1c(=O)c2c(nc(N[C@@H]3CCCC[C@@H]3O)n2Cc2ccc(OC)c(Br)c2)n(CC)c1=O [Compound 124]
≤ 5	CCN(CC)CCn1c(=O)n(CC)c(=O)c2c1nc(NC1CCCCC1)n2Cc1ccc(OC)c(Br)c1 [Compound 187]
